Reference: the supplement of paper PMC11208160

Test: recombinant barcode read abundance after kanamycin selection (control-corrected) (log10(CPM+1)); higher = more efficient recombination; sequences stand for … in AGTGCAGAGAAAATCGGCCAGTTTTCTCTGCCTGCAGTCCGCATGCCGT…AGATTTATGCAGCGGACTGCCTTTCTCCCAAAGTGATAAACCGGACAGTATCATGGACCGGTTTTCCCGGTAATCCGTATTTGCAAGGTTGGTTTCACT; site = the 11-nt target
How it was run: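 This pooled E. coli screen matched targets with IS621 bridge RNA target-binding loops. Plating was done in duplicate on chloramphenicol/ampicillin LB agar as a control and on chloramphenicol/ampicillin/kanamycin plus 0.1 mM IPTG. Recombination efficiency reflects barcode counts at recombinant junctions as counts per million, averaged and control-corrected. The figures are log10(CPM+1).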
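Also: IS621 recombinase and bridge RNA in Escherichia coli cells.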

Row | Sequence | recombinant barcode read abundance (log10)
1 | TTATTCACTTGGGTTCTAACCTGTTGCCT (site TCATTGACTAG) | 0.0352
2 | TTATTCACTTGGGTTCTAACCTGTTGCCT (site TTATTCACTAG) | 1.48
3 | TTCAAGTCTTGGGTTCTAACCTGTTGCCT (site TTCAAGACTAG) | 0.102
4 | TTCAAGTCTTGGGTTCTAACCTGTTGCCT (site TTCAAGCCTAG) | 0.198
5 | TTCAAGTCTTGGGTTCTAACCTGTTGCCT (site TTCAAGGCTAG) | 0.0708
6 | TTCAAGTCTTGGGTTCTAACCTGTTGCCT (site TTCAAGTCTAG) | 0.33
7 | TTCACGTCTTGGGTTCTAACCTGTTGCCT (site TTCACGTCTAG) | 0.202
8 | TTCACGTCTTGGGTTCTAACCTGTTGCCT (site TTCATGTCTAG) | 0.0406
9 | TTCAGACCTTGGGTTCTAACCTGTTGCCT (site AGGTACACTGT) | 0.0824
10 | TTCAGACCTTGGGTTCTAACCTGTTGCCT (site TTCAGACCTAG) | 0.912
11 | TTCCAAACTTGGGTTCTAACCTGTTGCGG (site TTCCAAACTCC) | 1.31
12 | TTCCAAACTTGGGTTCTAACCTGTTGCGG (site TTCCACACTCC) | 0.193
13 | TTCCTATCTTGGGTTCTAACCTGTTGCCT (site TACCTATCTAG) | 0.221
14 | TTCCTATCTTGGGTTCTAACCTGTTGCCT (site TCCCTATCTAG) | 0.071
15 | TTCCTATCTTGGGTTCTAACCTGTTGCCT (site TGCCTATCTAG) | 0.0749
16 | TTCCTATCTTGGGTTCTAACCTGTTGCCT (site TTCCTATCTAG) | 0.354
17 | TTCGAGTCTTGGGTTCTAACCTGTTGCGG (site TGCGAGTCTAC) | 0.0798
18 | TTCGAGTCTTGGGTTCTAACCTGTTGCGG (site TTCGAGTCTCC) | 1.91
19 | TTCGCGCCTTGGGTTCTAACCTGTTGCCT (site TTCACGCCTAG) | 0.0251
20 | TTCGCGCCTTGGGTTCTAACCTGTTGCCT (site TTCCCGCCTAG) | 0.144
21 | TTCGCGCCTTGGGTTCTAACCTGTTGCCT (site TTCGCGCCTAG) | 0.134
22 | TTCGCGCCTTGGGTTCTAACCTGTTGCCT (site TTCTCGCCTAG) | 0.176

Row | Sequence | recombinant barcode read abundance (log10)
23 | TTCGGGCCTTGGGTTCTAACCTGTTGCCT (site ATCGGGCCTAG) | 0.0878
24 | TTCGGGCCTTGGGTTCTAACCTGTTGCCT (site CTCGGGCCTAG) | 0.0465
25 | TTCGGGCCTTGGGTTCTAACCTGTTGCCT (site GTCGGGCCTAG) | 0.0582
26 | TTCGGGCCTTGGGTTCTAACCTGTTGCCT (site TTCGGGCCTAG) | 0.169
27 | TTCTAGTCTTGGGTTCTAACCTGTTGCTA (site ACAAGACCTAT) | 0.0562
28 | TTCTAGTCTTGGGTTCTAACCTGTTGCTA (site TTCTAGTCTTA) | 0.416
29 | TTCTGCGCTTGGGTTCTAACCTGTTGCCT (site TTCTGAGCTAG) | 0.0215
30 | TTCTGCGCTTGGGTTCTAACCTGTTGCCT (site TTCTGCGCTAG) | 1.2
31 | TTCTGCGCTTGGGTTCTAACCTGTTGCCT (site TTCTGGGCTAG) | 0.0626
32 | TTCTGCGCTTGGGTTCTAACCTGTTGCCT (site TTCTGTGCTAG) | 0.191
33 | TTCTGGGCTTGGGTTCTAACCTGTTGCCT (site TTCTGAGCTAG) | 0.172
34 | TTCTGGGCTTGGGTTCTAACCTGTTGCCT (site TTCTGCGCTAG) | 0.0493
35 | TTCTGGGCTTGGGTTCTAACCTGTTGCCT (site TTCTGGGCTAG) | 0
36 | TTCTGGGCTTGGGTTCTAACCTGTTGCCT (site TTCTGTGCTAG) | 0.137
37 | TTGAAACCTTGGGTTCTAACCTGTTGCCT (site GACGCCTCTGC) | 0.0146
38 | TTGAAACCTTGGGTTCTAACCTGTTGCCT (site TTGAAACCTAG) | 1.04
39 | TTGAGGCCTTGGGTTCTAACCTGTTGCCT (site ATGAGGCCTAG) | 0.059
40 | TTGAGGCCTTGGGTTCTAACCTGTTGCCT (site CTGAGGCCTAG) | 0.0268
41 | TTGAGGCCTTGGGTTCTAACCTGTTGCCT (site GTGAGGCCTAG) | 0.0327
42 | TTGAGGCCTTGGGTTCTAACCTGTTGCCT (site TTGAGGCCTAG) | 0.0305
43 | TTGAGTCCTTGGGTTCTAACCTGTTGCCT (site TTGAGTCCTAG) | 1.04
44 | TTGAGTCCTTGGGTTCTAACCTGTTGCCT (site TTGGGTCCTAC) | 0.319

Row | Sequence | recombinant barcode read abundance (log10)
45 | TTGATAGCTTGGGTTCTAACCTGTTGCTA (site ACCGCGTCTAT) | 0.174
46 | TTGATAGCTTGGGTTCTAACCTGTTGCTA (site TTGATAGCTTA) | 0.203
47 | TTGCAAACTTGGGTTCTAACCTGTTGCCT (site TTGCAAACTAG) | 0.501
48 | TTGCAAACTTGGGTTCTAACCTGTTGCCT (site TTGCCAACTAG) | 0.0256
49 | TTGCAAACTTGGGTTCTAACCTGTTGCCT (site TTGCGAACTAG) | 0.0337
50 | TTGCAAACTTGGGTTCTAACCTGTTGCCT (site TTGCTAACTAG) | 0.0349
51 | TTGCGAACTTGGGTTCTAACCTGTTGCAG (site GACGCGGCTAG) | 0.0589
52 | TTGCGAACTTGGGTTCTAACCTGTTGCAG (site TTGCGAACTCT) | 0.455
53 | TTGCGAACTTGGGTTCTAACCTGTTGCCT (site TTGCAAACTAG) | 0.0904
54 | TTGCGAACTTGGGTTCTAACCTGTTGCCT (site TTGCCAACTAG) | 0.269
55 | TTGCGAACTTGGGTTCTAACCTGTTGCCT (site TTGCGAACTAG) | 0.868
56 | TTGCGAACTTGGGTTCTAACCTGTTGCCT (site TTGCTAACTAG) | 0.0519
57 | TTGCTAACTTGGGTTCTAACCTGTTGCCT (site TTGCAAACTAG) | 0.0817
58 | TTGCTAACTTGGGTTCTAACCTGTTGCCT (site TTGCCAACTAG) | 0.0109
59 | TTGCTAACTTGGGTTCTAACCTGTTGCCT (site TTGCGAACTAG) | 0.0431
60 | TTGCTAACTTGGGTTCTAACCTGTTGCCT (site TTGCTAACTAG) | 0.802
61 | TTGGATACTTGGGTTCTAACCTGTTGCCA (site CATCTACCTCC) | 0.103
62 | TTGGATACTTGGGTTCTAACCTGTTGCCA (site TTGGATACTTG) | 1.04
63 | TTGGCCACTTGGGTTCTAACCTGTTGCCT (site TTGGACACTAG) | 0.0972
64 | TTGGCCACTTGGGTTCTAACCTGTTGCCT (site TTGGCCACTAG) | 1.08
65 | TTGGCCACTTGGGTTCTAACCTGTTGCCT (site TTGGGCACTAG) | 0.121
66 | TTGGCCACTTGGGTTCTAACCTGTTGCCT (site TTGGTCACTAG) | 0.0232
